According to US20110319416A1, “Subunit Selective NMDA Receptor Antagonists For The Treatment Of Neurological Conditions” (EMORY UNIVERSITY, priority 2009, published 2011):
Where two headings read alike, the source gives them in different places.

Tests used:
Assay type in all cases: cell-based
NR1/NR2A = NR1/NR2A (Rattus norvegicus, UniProt P35439+Q00959); test: Two electrode voltage clamp, Xenopus oocytes expressing recombinant NR1/NR2A; details: for remaining activity at 100 µM: read-out: 2A percent effect at the maximum tested concentration; for IC50: logistic fit, minimum forced to 0, read-out: 2A IC50
Experimental: (§1) Quality of synthesized cRNA was assessed by gel electrophoresis, and quantity was estimated by spectroscopy and gel electrophoresis. Stage V and VI oocytes were surgically removed from the ovaries of large, well-fed and healthy Xenopus laevis anesthetized with 3-amino-benzoic acid ethyl ester (3 gm/l) as previously described. Clusters of isolated oocytes were incubated with 292 U/ml Worthington (Freehold, N.J.) type IV collagenase or 1.3 mg/ml collagenase (Life Technologies, Gaithersburg, MD; 17018-029) for 2 hr in Ca^2+-free solution comprised of (in mM) 115 NaCl, 2.5 KCl, and 10 HEPES, pH 7.5, with slow agitation to remove the follicular cell layer. Oocytes were then washed extensively in the same solution supplemented with 1.8 mM CaCl2 and maintained in Barth's solution comprised of (in mM): 88 NaCl, 1 KCl, 2.4 NaHCO3, 10 HEPES, 0.82 MgSO4, 0.33 Ca(NO3)2, and 0.91 CaCl2 and supplemented with 100 μg/m1 gentamycin, 10 μg/ml streptomycin, and 10 μg/ml penicillin. Oocytes were manually defolliculated and injected within 24 hrs of isolation with 3-5 ng of NR1 subunit cRNA and 7-10 ng of NR2 cRNA subunit in a 50 nl volume, or 5-10 ng of AMPA or kainate receptor cRNAs in a 50 nl volume, and incubated in Barth's solution at 18° C. for 1-7 d. Glass injection pipettes had tip sizes ranging from 10-20 microns, and were backfilled with mineral oil.
(§2) Two electrode voltage-clamp recordings were made 2-7 days post-injection as previously described. Oocytes were placed in a dual-track plexi-glass recording chamber with a single perfusion line that splits in a Y-configuration to perfuse two oocytes. Dual recordings were made at room temperature (23° C.) using two Warner OC725B two-electrode voltage clamp amplifiers, arranged as recommended by the manufacturer. Glass microelectrodes (1-10 Megaohms) were filled with 300 mM KCl (voltage electrode) or 3 M KCl (current electrode). The bath clamps communicated across silver chloride wires placed into each side of the recording chamber, both of which were assumed to be at a reference potential of 0 mV. Oocytes were perfused with a solution comprised of (in mM) 90 NaCl, 1 KCl, 10 HEPES, and 0.5 BaCl2; pH was adjusted by addition of 1-3 M NaOH of HC1 to 7.4. Oocytes were recorded under voltage clamp at −40 mV. […] In some experiments, 10 μM EDTA was obtained by adding a 1:1000 dilution of 10 mM EDTA, in order to chelate contaminant divalent ions such as Zn^2+. […] Concentration effect curves consisting of 4 to 8 concentrations were obtained in this manner. The baseline leak current at −40 mV was measured before and after recording, and the full recording linearly corrected for any change in leak current. […] Each experiment consisted of recordings from 3 to 10 oocytes obtained from a single frog. Results from multiple experiments were pooled, and the average percent responses at antagonist concentrations were fitted by the equation,
(§3) Percent Response=(100−minimum)/(1+([conc]/IC50)nH)+minimum

NR1/NR2B = NR1/NR2B (Rattus norvegicus, UniProt P35439+Q00960); test: Two electrode voltage clamp, Xenopus oocytes expressing recombinant NR1/NR2B; details: for remaining activity at 100 µM: read-out: 2B percent effect at the maximum tested concentration
Experimental: as §1, §2, §3

NR1/NR2C = NR1/NR2C (Rattus norvegicus, UniProt P35439+Q00961); test: Two electrode voltage clamp, Xenopus oocytes expressing recombinant NR1/NR2C; details: for remaining activity at 100 µM: read-out: 2C percent effect at the maximum tested concentration
Experimental: as §1, §2, §3

NR1/NR2D = NR1/NR2D (Rattus norvegicus, UniProt P35439+Q62645); test: Two electrode voltage clamp, Xenopus oocytes expressing recombinant NR1/NR2D; details: for remaining activity at 100 µM: read-out: 2D percent effect at the maximum tested concentration
Experimental: as §1, §2, §3

[1] = logistic fit, minimum forced to 0, read-out: 2B IC50
[2] = logistic fit, minimum forced to 0, read-out: 2C IC50
[3] = logistic fit, minimum forced to 0, read-out: 2D IC50

Sequence of NR1/NR2C (Q00961 20-1237, other chains not shown): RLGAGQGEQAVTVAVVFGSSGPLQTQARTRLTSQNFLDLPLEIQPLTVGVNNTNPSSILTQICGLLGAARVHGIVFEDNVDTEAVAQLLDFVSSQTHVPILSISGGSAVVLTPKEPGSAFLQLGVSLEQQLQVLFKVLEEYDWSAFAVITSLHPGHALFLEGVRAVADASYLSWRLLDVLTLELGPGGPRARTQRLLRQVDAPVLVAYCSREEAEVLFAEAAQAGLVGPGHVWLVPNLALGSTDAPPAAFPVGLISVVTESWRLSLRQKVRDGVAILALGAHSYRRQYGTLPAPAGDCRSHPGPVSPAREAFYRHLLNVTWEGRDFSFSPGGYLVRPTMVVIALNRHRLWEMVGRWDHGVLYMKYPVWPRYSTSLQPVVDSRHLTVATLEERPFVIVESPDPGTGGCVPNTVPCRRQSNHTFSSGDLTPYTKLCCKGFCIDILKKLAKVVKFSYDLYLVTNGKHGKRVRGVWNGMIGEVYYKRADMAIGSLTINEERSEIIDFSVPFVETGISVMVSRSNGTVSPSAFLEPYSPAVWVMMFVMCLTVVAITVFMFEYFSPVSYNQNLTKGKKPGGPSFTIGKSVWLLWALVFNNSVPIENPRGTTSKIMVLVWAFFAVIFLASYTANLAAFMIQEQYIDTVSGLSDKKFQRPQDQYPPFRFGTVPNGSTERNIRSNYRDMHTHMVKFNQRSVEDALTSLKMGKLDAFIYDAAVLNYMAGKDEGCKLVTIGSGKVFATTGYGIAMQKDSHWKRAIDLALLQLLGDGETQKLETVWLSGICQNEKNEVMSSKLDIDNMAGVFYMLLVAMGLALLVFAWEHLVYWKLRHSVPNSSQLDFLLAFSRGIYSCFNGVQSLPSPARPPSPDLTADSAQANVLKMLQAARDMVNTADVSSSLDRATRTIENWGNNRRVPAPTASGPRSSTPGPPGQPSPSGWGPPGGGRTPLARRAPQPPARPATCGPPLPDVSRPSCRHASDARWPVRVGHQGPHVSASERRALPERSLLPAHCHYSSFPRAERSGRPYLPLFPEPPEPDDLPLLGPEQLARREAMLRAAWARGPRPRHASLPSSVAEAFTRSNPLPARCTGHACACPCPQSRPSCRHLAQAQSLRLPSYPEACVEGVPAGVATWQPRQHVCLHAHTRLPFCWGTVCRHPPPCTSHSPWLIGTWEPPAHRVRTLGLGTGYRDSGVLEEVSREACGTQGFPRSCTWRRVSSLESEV
Sequence of NR1/NR2D (Q62645 28-1323, other chains not shown): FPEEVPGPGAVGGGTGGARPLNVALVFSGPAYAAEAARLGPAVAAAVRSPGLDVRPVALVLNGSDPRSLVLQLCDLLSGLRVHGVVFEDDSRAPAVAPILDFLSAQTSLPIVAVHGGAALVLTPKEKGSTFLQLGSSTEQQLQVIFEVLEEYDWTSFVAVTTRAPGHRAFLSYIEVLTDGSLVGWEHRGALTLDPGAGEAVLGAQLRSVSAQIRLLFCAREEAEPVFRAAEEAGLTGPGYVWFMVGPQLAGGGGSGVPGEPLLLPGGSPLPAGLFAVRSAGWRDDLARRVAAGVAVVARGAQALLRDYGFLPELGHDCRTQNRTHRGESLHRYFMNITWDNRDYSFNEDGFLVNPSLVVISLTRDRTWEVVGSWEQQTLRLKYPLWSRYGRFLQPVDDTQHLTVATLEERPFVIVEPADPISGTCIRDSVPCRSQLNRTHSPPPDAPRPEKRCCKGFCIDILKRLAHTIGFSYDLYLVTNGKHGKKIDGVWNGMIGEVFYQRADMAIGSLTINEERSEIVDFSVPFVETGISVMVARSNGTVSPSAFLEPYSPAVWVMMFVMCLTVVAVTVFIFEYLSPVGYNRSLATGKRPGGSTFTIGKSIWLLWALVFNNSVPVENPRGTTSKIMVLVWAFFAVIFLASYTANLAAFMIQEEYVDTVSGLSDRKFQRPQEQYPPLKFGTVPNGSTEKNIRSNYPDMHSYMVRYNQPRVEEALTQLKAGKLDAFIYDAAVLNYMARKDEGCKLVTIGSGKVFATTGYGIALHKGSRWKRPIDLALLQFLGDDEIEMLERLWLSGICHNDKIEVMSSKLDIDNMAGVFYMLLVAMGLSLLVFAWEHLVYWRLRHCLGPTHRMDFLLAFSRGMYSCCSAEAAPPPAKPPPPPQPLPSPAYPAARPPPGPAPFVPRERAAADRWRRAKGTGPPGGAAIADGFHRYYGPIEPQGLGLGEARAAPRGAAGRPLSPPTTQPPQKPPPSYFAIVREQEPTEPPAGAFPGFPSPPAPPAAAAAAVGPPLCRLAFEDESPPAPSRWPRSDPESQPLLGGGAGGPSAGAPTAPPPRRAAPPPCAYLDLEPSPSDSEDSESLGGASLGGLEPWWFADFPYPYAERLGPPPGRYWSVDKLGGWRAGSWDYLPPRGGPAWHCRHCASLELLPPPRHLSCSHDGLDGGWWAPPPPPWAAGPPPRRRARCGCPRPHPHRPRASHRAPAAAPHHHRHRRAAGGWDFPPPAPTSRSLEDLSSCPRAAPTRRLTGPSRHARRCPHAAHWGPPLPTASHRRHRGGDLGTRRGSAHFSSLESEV
Sequence of NR1/NR2B (Q00960 27-1482, other chains not shown): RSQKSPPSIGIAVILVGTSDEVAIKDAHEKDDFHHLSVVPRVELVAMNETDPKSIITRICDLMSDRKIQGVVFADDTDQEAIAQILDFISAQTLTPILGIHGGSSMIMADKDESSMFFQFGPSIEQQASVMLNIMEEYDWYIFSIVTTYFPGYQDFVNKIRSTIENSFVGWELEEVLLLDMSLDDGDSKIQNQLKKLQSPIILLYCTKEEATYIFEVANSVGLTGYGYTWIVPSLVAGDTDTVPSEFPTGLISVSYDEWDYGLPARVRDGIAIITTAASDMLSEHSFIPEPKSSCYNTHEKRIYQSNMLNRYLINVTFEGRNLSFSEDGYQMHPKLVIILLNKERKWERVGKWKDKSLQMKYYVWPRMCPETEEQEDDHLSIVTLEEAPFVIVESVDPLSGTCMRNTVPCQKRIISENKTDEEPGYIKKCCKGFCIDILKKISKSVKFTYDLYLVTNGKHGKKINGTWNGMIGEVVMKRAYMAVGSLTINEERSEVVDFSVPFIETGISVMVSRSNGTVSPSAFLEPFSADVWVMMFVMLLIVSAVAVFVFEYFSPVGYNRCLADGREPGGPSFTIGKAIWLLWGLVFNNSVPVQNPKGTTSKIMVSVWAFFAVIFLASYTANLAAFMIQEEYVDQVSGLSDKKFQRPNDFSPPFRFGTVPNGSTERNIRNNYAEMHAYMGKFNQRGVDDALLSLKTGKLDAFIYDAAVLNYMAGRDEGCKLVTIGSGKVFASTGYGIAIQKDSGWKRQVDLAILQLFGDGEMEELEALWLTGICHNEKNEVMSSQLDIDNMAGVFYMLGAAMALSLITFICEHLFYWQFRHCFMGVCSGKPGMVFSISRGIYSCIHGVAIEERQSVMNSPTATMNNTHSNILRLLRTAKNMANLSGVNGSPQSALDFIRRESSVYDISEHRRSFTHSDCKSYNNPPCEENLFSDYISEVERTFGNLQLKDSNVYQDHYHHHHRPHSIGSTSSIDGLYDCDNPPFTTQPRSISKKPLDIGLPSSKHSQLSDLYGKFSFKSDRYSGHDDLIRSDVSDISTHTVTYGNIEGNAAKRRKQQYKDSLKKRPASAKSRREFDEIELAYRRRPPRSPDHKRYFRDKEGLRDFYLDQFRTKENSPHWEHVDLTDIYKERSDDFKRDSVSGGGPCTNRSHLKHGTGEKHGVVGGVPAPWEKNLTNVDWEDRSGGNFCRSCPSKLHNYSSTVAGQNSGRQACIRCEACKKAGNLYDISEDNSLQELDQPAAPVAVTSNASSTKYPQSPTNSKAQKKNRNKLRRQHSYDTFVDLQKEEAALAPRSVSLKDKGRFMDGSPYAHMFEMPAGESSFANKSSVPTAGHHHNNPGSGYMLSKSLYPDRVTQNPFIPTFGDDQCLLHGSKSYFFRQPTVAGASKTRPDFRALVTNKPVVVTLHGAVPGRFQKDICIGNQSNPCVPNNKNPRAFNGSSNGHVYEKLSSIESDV

SMILES	remaining activity at 100 µM (NR1/NR2B) [%]	remaining activity at 100 µM (NR1/NR2D) [%]	IC50 (NR1/NR2D; [3]) [µM]	remaining activity at 100 µM (NR1/NR2A; at 100 μM) [%]	other results
CC(C)N(C(=O)Oc1ccc(C(=O)Oc2cccc3c(N)cccc23)cc1)C(C)C [1063-14]	95	75	–	104	remaining activity at 100 µM (NR1/NR2C): 85%
O=C(O)c1ccc(C(=O)Nc2cccc3cc[nH]c23)cc1 [1063-28]	95	89	–	–	IC50 (NR1/NR2A): 245 µM; remaining activity at 100 µM (NR1/NR2C): 98%
CCN(CC)C(=O)c1ccc(C(=O)Nc2cccc3cc[nH]c23)cc1 [1063-27]	83	82	–	–	IC50 (NR1/NR2A): 497 µM; remaining activity at 100 µM (NR1/NR2C): 93%
CC(C)N(C(=O)Oc1ccc(C(=O)Nc2ccc3cc[nH]c3c2)cc1)C(C)C [1063-15]	–	–	–	–	remaining activity at 100 µM (NR1/NR2A): 74%; IC50 (NR1/NR2B): 44 µM; IC50 (NR1/NR2C): 11 µM; IC50 (NR1/NR2D): 12 µM
CCCCN(CCCC)C(=O)Oc1ccc(C(=O)Nc2cccc3ccccc23)cc1 [1063-8]	88	87	–	135	–
O=C(Nc1cccc2ccccc12)c1ccc(Oc2nc(-c3ccccc3)cs2)cc1 [1063-22]	91	88	–	96	remaining activity at 100 µM (NR1/NR2C): 92%
CCN(CC)C(=O)Oc1cccc(C(=O)Nc2cccc3ccccc23)c1 [1063-24]	95	84	–	84	remaining activity at 100 µM (NR1/NR2C): 93%
O=C(O)CCC(=O)N1N=C(c2c(-c3ccccc3)c3cc(Cl)ccc3[nH]c2=O)CC1c1ccccc1 (stereo not shown) [compound 1149]	–	–	32	–	–
O=C(Nc1cccc2ccccc12)c1ccc(Oc2nc3ccccc3s2)cc1 [1063-23]	85	91	–	91	remaining activity at 100 µM (NR1/NR2C): 89%
O=C(O)CCC(=O)N1N=C(c2c(-c3ccccc3)c3cc(Br)ccc3[nH]c2=O)CC1c1ccc(Br)cc1 (stereo not shown) [compound 997]	–	–	3	–	IC50 (NR1/NR2A): 78 µM; IC50 (NR1/NR2B; [1]): 19 µM; IC50 (NR1/NR2C; [2]): 5 µM
CCN(CC)C(=O)Nc1ccc(C(=O)Nc2cccc3ccccc23)cc1 [1063-11]	88	–	527	102	IC50 (NR1/NR2C; [2]): 687 µM
CCN(CC)C(=S)Oc1ccc(C(=O)Nc2ccc(F)cc2)cc1 [compound 1379]	88	–	55	99	IC50 (NR1/NR2C; [2]): 247 µM
CCN(CC)C(=O)Oc1ccc(C(=O)Nc2cccc3c2CCCC3)cc1 [1063-18]	–	–	–	–	remaining activity at 100 µM (NR1/NR2A): 95%; IC50 (NR1/NR2B): 214 µM; IC50 (NR1/NR2C): 23 µM; IC50 (NR1/NR2D): 20 µM
O=C(Nc1cccc2ccccc12)c1ccc(OC(=O)N2CCCCC2)cc1 [1063-7]	98	84	–	135	–

The next lines start with results.

remaining activity at 100 µM (NR1/NR2B) [%]	remaining activity at 100 µM (NR1/NR2D) [%]	IC50 (NR1/NR2D; [3]) [µM]	SMILES	remaining activity at 100 µM (NR1/NR2A; at 100 μM) [%]	other results
–	–	9	Cc1ccc(C2CC(c3c(-c4ccccc4)c4cc(Br)ccc4[nH]c3=O)=NN2C(=O)CCC(=O)O)cc1 (stereo not shown) [compound 1185]	–	IC50 (NR1/NR2A): 140 µM; IC50 (NR1/NR2B; [1]): 59 µM; IC50 (NR1/NR2C; [2]): 16 µM
–	–	279	C=CCN(CC=C)C(=S)Oc1ccc(C(=O)Nc2cccc3ccccc23)cc1 [compound 1380]	–	–
–	–	4	O=C(O)CCC(=O)N1N=C(c2c(-c3ccccc3)c3cc(Cl)ccc3[nH]c2=O)CC1c1cccc(Br)c1 (stereo not shown) [compound 1176]	–	IC50 (NR1/NR2A): 24 µM; IC50 (NR1/NR2B; [1]): 30 µM; IC50 (NR1/NR2C; [2]): 7 µM
–	–	21	O=C(O)CCC(=O)N1N=C(c2c(-c3ccccc3)c3cc(Br)ccc3[nH]c2=O)CC1c1ccccc1F (stereo not shown) [compound 1178]	–	–
–	–	20	O=C(O)CCC(=O)N1N=C(c2c(-c3ccccc3)c3cc(Br)ccc3[nH]c2=O)CC1c1ccccc1 (stereo not shown) [compound 1183]	–	–
–	–	> 300	O=c1[nH]c2ccc(Br)cc2c(-c2ccccc2)c1C1=NNC(c2ccc(F)cc2)C1 (stereo not shown) [compound 1248]	–	–
–	–	> 1000	O=C(Nc1cccc2ccccc12)c1ccc(OC(=S)N2CCOCC2)cc1 [compound 1374]	–	–
